In the NIST ThermoML archive (doi:10.1021/acs.jced.7b01006):

Experiment: xn = mol fraction of the nth substance listed
Conditions: 100 kPa, Liquid; for electrical conductivity: Alternating current cell with electrodes; for viscosity: Falling or rolling sphere viscometry; for mass density: Vibrating tube method

CCCCn1cc[n+](C)c1C.N#C[S-] [1-butyl-2,3-dimethylimidazolium thiocyanate] + CC#N
Conditions	electrical conductivity [S/m]	mass density [kg/m3]	viscosity [mPa·s]
288.15 K, x1 = 0.1001	4.72	888.99	16.94
288.15 K, x1 = 0.2004	4.01	951.31	38.93
288.15 K, x1 = 0.2999	3.35	995.07	67.12
288.15 K, x1 = 0.4003	1.19	1026.63	102.7
288.15 K, x1 = 0.5001	0.765	1038.63	145.4
288.15 K, x1 = 0.5999	0.599	1050.73	193.9
288.15 K, x1 = 0.6999	0.429	1062.95	249.1
288.15 K, x1 = 0.8002	0.358	1068.26	310.4
288.15 K, x1 = 0.9002	0.24	1075.99	377.8
288.15 K, x1 = 1	0.106	1084.2	452.7
293.15 K, x1 = 0.1001	5.01	885.19	11.74
293.15 K, x1 = 0.2004	4.34	948.02	27.08
293.15 K, x1 = 0.2999	3.71	991.9	46.77
293.15 K, x1 = 0.4003	1.45	1024	71.58
293.15 K, x1 = 0.5001	0.919	1036.16	100.9
293.15 K, x1 = 0.5999	0.728	1048.16	134.8
293.15 K, x1 = 0.6999	0.531	1060.42	172.9
293.15 K, x1 = 0.8002	0.458	1066.14	214.7
293.15 K, x1 = 0.9002	0.316	1073.56	260.4
293.15 K, x1 = 1	0.153	1081.11	311.3
298.15 K, x1 = 0.1001	5.31	881.36	8.229
298.15 K, x1 = 0.2004	4.69	944.6	18.85
298.15 K, x1 = 0.2999	4.05	988.57	32.07
298.15 K, x1 = 0.4003	1.71	1021.27	49.45
298.15 K, x1 = 0.5001	1.12	1033.49	69.9
298.15 K, x1 = 0.5999	0.891	1045.66	93.7
298.15 K, x1 = 0.6999	0.654	1057.9	119.9
298.15 K, x1 = 0.8002	0.57	1063.84	148.9
298.15 K, x1 = 0.9002	0.39	1071.37	181
298.15 K, x1 = 1	0.217	1078.2	218
303.15 K, x1 = 0.1001	5.61	877.5	5.854
303.15 K, x1 = 0.2004	5.03	941.34	12.95
303.15 K, x1 = 0.2999	4.42	985.32	22.58
303.15 K, x1 = 0.4003	2.01	1018.59	34.51
303.15 K, x1 = 0.5001	1.32	1030.79	49.24
303.15 K, x1 = 0.5999	1.06	1043.17	66.62
303.15 K, x1 = 0.6999	0.795	1055.17	85.89
303.15 K, x1 = 0.8002	0.697	1061.75	106.9
303.15 K, x1 = 0.9002	0.497	1068.94	130.3
303.15 K, x1 = 1	0.293	1075.18	157.9
308.15 K, x1 = 0.1001	5.92	873.64	4.393
308.15 K, x1 = 0.2004	5.36	938.14	9.306
308.15 K, x1 = 0.2999	4.79	982.11	16.16
308.15 K, x1 = 0.4003	2.34	1015.92	24.59
308.15 K, x1 = 0.5001	1.56	1028.06	34.95
308.15 K, x1 = 0.5999	1.26	1040.79	47.89
308.15 K, x1 = 0.6999	0.96	1052.69	62.82
308.15 K, x1 = 0.8002	0.853	1059.56	78.98
308.15 K, x1 = 0.9002	0.61	1066.57	97.33
308.15 K, x1 = 1	0.386	1072.16	118.9
313.15 K, x1 = 0.1001	6.23	869.75	3.257
313.15 K, x1 = 0.2004	5.7	934.72	6.633
313.15 K, x1 = 0.2999	5.15	978.72	11.34
313.15 K, x1 = 0.4003	2.67	1013.21	17.39
313.15 K, x1 = 0.5001	1.81	1025.43	25.45
313.15 K, x1 = 0.5999	1.48	1038.3	35.42
313.15 K, x1 = 0.6999	1.16	1050.1	46.81
313.15 K, x1 = 0.8002	1.03	1057.26	59.49
313.15 K, x1 = 0.9002	0.749	1064.3	73.79
313.15 K, x1 = 1	0.496	1069.15	90.46
318.15 K, x1 = 0.1001	6.53	865.95	2.458
318.15 K, x1 = 0.2004	6.03	931.41	4.722
318.15 K, x1 = 0.2999	5.52	975.35	8.162
318.15 K, x1 = 0.4003	3.03	1010.57	12.95
318.15 K, x1 = 0.5001	2.07	1022.69	18.62
318.15 K, x1 = 0.5999	1.73	1035.83	26.33
318.15 K, x1 = 0.6999	1.38	1047.6	35.55
318.15 K, x1 = 0.8002	1.23	1055.02	46.09
318.15 K, x1 = 0.9002	0.913	1061.87	57.94
318.15 K, x1 = 1	0.627	1066.16	72.04
323.15 K, x1 = 0.1001	6.83	862.09	1.882
323.15 K, x1 = 0.2004	6.37	927.98	3.578
323.15 K, x1 = 0.2999	5.89	972.17	5.904
323.15 K, x1 = 0.4003	3.4	1007.9	9.491
323.15 K, x1 = 0.5001	2.37	1020.14	13.67
323.15 K, x1 = 0.5999	2.01	1033.37	19.96
323.15 K, x1 = 0.6999	1.63	1045.21	27.68
323.15 K, x1 = 0.8002	1.46	1052.82	36.89
323.15 K, x1 = 0.9002	1.1	1059.62	46.83
323.15 K, x1 = 1	0.774	1063.2	57.11
